Data on 33 compounds can be found in patent US11053234B2 (GlaxoSmithKline Intellectual Property Development Limited, priority 2016, dated 2021).

Some results are limits rather than exact numbers.

In the experiment the target is T1, haematopoietic prostaglandin D synthase (H-PGDS) (Homo sapiens, UniProt O60760).
T1 construct: Full length human H-PGDS cDNA (Invitrogen Ultimate ORF 10H13026) was amplified by PCR; 6-His (N); TEV protease cleavage site (N); made in house; host or cells: E. coli BL21 (DE3*), vector pET22b+
T1 sequence (O60760 whole entry): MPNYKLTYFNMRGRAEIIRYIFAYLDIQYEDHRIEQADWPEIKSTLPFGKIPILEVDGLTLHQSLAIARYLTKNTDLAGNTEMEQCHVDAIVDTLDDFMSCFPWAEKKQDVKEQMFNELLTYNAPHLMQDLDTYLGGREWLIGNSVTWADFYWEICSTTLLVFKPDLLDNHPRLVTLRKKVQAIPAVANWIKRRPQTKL
Kind of experiment: H-PGDS RapidFire high throughput mass spectrometry assay (conversion of PGH2 to PGD2). The settings on record: 10 nM H-PGDS, PGH2 formed in situ by COX-2 from arachidonic acid; read-out: Potency Range (mean pIC50) (converted). It counts as biochemical. An outline of the steps:
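RapidFire SPE–MS read-out calculated percent conversion from relative PGD2 and PGF2α (substrate surrogate) levels. Recombinant full-length human H-PGDS (His-tag, E. coli) turned over PGH2, produced in situ at ˜10 μM by human COX-2 (FLAG-tag, Sf9 cells) acting on arachidonic acid.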

Consider `C[C@]1(O)CC[C@H](NC(=O)[C@H]2C[C@H](Oc3cc(F)ccc3OC(F)F)C2)CC1` [Example 29, (trans)-3-(2-(Difluoromethoxy)-5-fluorophenoxy)-N-((trans)-4-hydroxy-4-methylcyclohexyl)cyclobutanecarboxamide], for which the IC50 is 10 to 79.4 nM. For `CCOC(=O)c1csc(NC(=O)[C@H]2C[C@H](Oc3cc(F)ccc3OC(F)F)C2)n1` [Example 31, ethyl 2-((trans)-3-(2-(difluoromethoxy)-5-fluorophenoxy)cyclobutanecarboxamido)thiazole-4-carboxylate] the value was less than 10 nM. For the compound `O=C(c1csc(NC(=O)[C@H]2C[C@H](Oc3cc(F)ccc3OC(F)F)C2)n1)C1CC1` [Example 32, (trans)-N-(4-(Cyclopropanecarbonyl)thiazol-2-yl)-3-(2-(difluoromethoxy)-5-fluorophenoxy)cyclobutanecarboxamide], the IC50 was less than 10 nM. Regarding `CC(C)(O)CO[C@H]1CC[C@H](NC(=O)[C@H]2C[C@H](Oc3cc(F)ccc3OC(F)F)C2)CC1` [Example 33, (trans)-3-(2-(Difluoromethoxy)-5-fluorophenoxy)-N-((trans)-4-(2-hydroxy-2-methylpropoxy)cyclohexyl)cyclobutanecarboxamide], the IC50 is 10 to 79.4 nM. The same measure for `CC(C)(O)[C@H]1CC[C@H](NC(=O)[C@H]2C[C@H](Oc3cc(F)ccc3OC(F)F)C2)CC1` [Example 34, (trans)-3-(2-(Difluoromethoxy)-5-fluorophenoxy)-N-((trans)-4-(2-hydroxypropan-2-yl)cyclohexyl)cyclobutanecarboxamide]: 10 to 79.4 nM; for `CC(=O)c1csc(NC(=O)[C@H]2C[C@H](Oc3cc(F)ccc3OC(F)F)C2)n1` [Example 35, (trans)-N-(4-Acetylthiazol-2-yl)-3-(2-(difluoromethoxy)-5-fluorophenoxy)cyclobutanecarboxamide]: less than 10 nM; for `NC(=O)c1ccc(N2CC(NC(=O)[C@H]3C[C@H](Oc4cccc5scnc45)C3)C2)nc1` [Example 36, 6-(3-((trans)-3-(Benzo[d]thiazol-4-yloxy)cyclobutanecarboxamido)azetidin-1-yl)nicotinamide]: 10 to 79.4 nM. `N#Cc1ccc(N2CC(NC(=O)[C@H]3C[C@H](Oc4cccc5scnc45)C3)C2)nc1` [Example 37, (trans)-3-(Benzo[d]thiazol-4-yloxy)-N-(1-(5-cyanopyridin-2-yl)azetidin-3-yl)cyclobutanecarboxamide]: the IC50 is 10 to 79.4 nM.

Turning to `CNC(=O)c1ccc(N2CC(NC(=O)[C@H]3C[C@H](Oc4cccc5scnc45)C3)C2)nc1` [Example 38, 6-(3-((trans)-3-(Benzo[d]thiazol-4-yloxy)cyclobutanecarboxamido)azetidin-1-yl)-N-methylnicotinamide], the IC50 is 10 to 79.4 nM.

Turning to `Cc1cnc(N2CC(NC(=O)[C@H]3C[C@H](Oc4cccc5scnc45)C3)C2)nc1` [Example 39, (trans)-3-(Benzo[d]thiazol-4-yloxy)-N-(1-(5-methylpyrimidin-2-yl)azetidin-3-yl)cyclobutanecarboxamide], the IC50 is 10 to 79.4 nM. For the compound `O=C(NC1CCN(c2ncc(F)cn2)CC1)[C@H]1C[C@H](Oc2cccc3scnc23)C1` [Example 41, (trans)-3-(Benzo[d]thiazol-4-yloxy)-N-(1-(5-fluoropyrimidin-2-yl)piperidin-4-yl)cyclobutanecarboxamide], the IC50 was 10 to 79.4 nM. For `O=C(NC1CN(c2ccc(F)cn2)C1)[C@H]1C[C@H](Oc2cccc3scnc23)C1` [Example 44, (trans)-3-(Benzo[d]thiazol-4-yloxy)-N-(1-(5-fluoropyridin-2-yl)azetidin-3-yl)cyclobutanecarboxamide] the value was 10 to 79.4 nM; for `COC(=O)c1coc(N2CC(NC(=O)[C@H]3C[C@H](Oc4cccc5scnc45)C3)C2)n1` [Example 45, Methyl 2-(3-((trans)-3-(benzo[d]thiazol-4-yloxy)cyclobutanecarboxamido)azetidin-1-yl)oxazole-4-carboxylate], 100 to 1000 nM. The same measure for `CC(=O)c1coc(N2CC(NC(=O)[C@H]3C[C@H](Oc4cccc5scnc45)C3)C2)n1` [Example 47, (trans)-N-(1-(4-Acetyloxazol-2-yl)azetidin-3-yl)-3-(benzo[d]thiazol-4-yloxy)cyclobutanecarboxamide]: 100 to 1000 nM. Take `CCOC(=O)c1cnc(N2CC(NC(=O)[C@H]3C[C@H](Oc4cccc5scnc45)C3)C2)o1` [Example 48, Ethyl 2-(3-((trans)-3-(benzo[d]thiazol-4-yloxy)cyclobutanecarboxamido)azetidin-1-yl)oxazole-5-carboxylate]: the IC50 was 100 to 1000 nM. On to `CC(C)(O)c1cnc(N2CC(NC(=O)[C@H]3C[C@H](Oc4cccc5scnc45)C3)C2)o1` [Example 49, (trans)-3-(Benzo[d]thiazol-4-yloxy)-N-(1-(5-(2-hydroxypropan-2-yl)oxazol-2-yl)azetidin-3-yl)cyclobutanecarboxamide], for which the IC50 is 10 to 79.4 nM. Turning to `Cc1nccc(N2CC(NC(=O)[C@H]3C[C@H](Oc4cccc5scnc45)C3)C2)n1` [Example 50, (trans)-3-(Benzo[d]thiazol-4-yloxy)-N-(1-(2-methylpyrimidin-4-yl)azetidin-3-yl)cyclobutanecarboxamide], the IC50 was 10 to 79.4 nM. Take `N#Cc1ccnc(N2CC(NC(=O)N3CC(Oc4cccc5scnc45)C3)C2)c1` [Example 52, 3-(Benzo[d]thiazol-4-yloxy)-N-(1-(4-cyanopyridin-2-yl)azetidin-3-yl)azetidine-1-carboxamide]: the IC50 was 10 to 79.4 nM. The same measure for `O=C(N[C@H]1CC[C@H](N[C@@H](CO)C(F)(F)F)CC1)N1CC(Oc2cccc3scnc23)C1` [Example 53, 3-(Benzo[d]thiazol-4-yloxy)-N-((trans)-4-(((S)-1,1,1-trifluoro-3-hydroxypropan-2-yl)amino)cyclohexyl)azetidine-1-carboxamide]: 10 to 79.4 nM; for `O=C(NC1CN(c2ccccn2)C1)N1CC(Oc2cccc3scnc23)C1` [Example 54, 3-(Benzo[d]thiazol-4-yloxy)-N-(1-(pyridin-2-yl)azetidin-3-yl)azetidine-1-carboxamide]: 10 to 79.4 nM; for `CC(C)(O)c1csc(NC(=O)[C@H]2C[C@H](Oc3cccc4scnc34)C2)n1` [Example 55, (trans)-3-(Benzo[d]thiazol-4-yloxy)-N-(4-(2-hydroxypropan-2-yl)thiazol-2-yl)cyclobutanecarboxamide]: 10 to 79.4 nM. The same measure for `CC(C)(O)c1csc(NC(=O)N2CC(Oc3cccc4scnc34)C2)n1` [Example 56, 3-(Benzo[d]thiazol-4-yloxy)-N-(4-(2-hydroxypropan-2-yl)thiazol-2-yl)azetidine-1-carboxamide]: 100 to 1000 nM; for `O=C(N[C@H]1CC[C@H](N2CC(F)(F)C2)CC1)N1CC(Oc2cccc3scnc23)C1` [Example 57, 3-(Benzo[d]thiazol-4-yloxy)-N-((trans)-4-(3,3-difluoroazetidin-1-yl)cyclohexyl)azetidine-1-carboxamide]: 100 to 1000 nM.

Turning to `COCCO[C@H]1CC[C@H](NC(=O)[C@H]2C[C@H](Oc3cccc4scnc34)C2)CC1` [Example 58, (trans)-3-(Benzo[d]thiazol-4-yloxy)-N-((trans)-4-(2-methoxyethoxy)cyclohexyl)cyclobutanecarboxamide], the IC50 was 100 to 1000 nM. The same measure for `COCCO[C@H]1CC[C@H](NC(=O)N2CC(Oc3cccc4scnc34)C2)CC1` [Example 59, 3-(Benzo[d]thiazol-4-yloxy)-N-((trans)-4-(2-methoxyethoxy)cyclohexyl)azetidine-1-carboxamide]: 10 to 79.4 nM; for `O=C(NC1CN(c2ccnc(Cl)n2)C1)N1CC(Oc2cccc3scnc23)C1` [Example 60, 3-(Benzo[d]thiazol-4-yloxy)-N-(1-(2-chloropyrimidin-4-yl)azetidin-3-yl)azetidine-1-carboxamide]: 10 to 79.4 nM. Consider `O=C(NC1CN(c2ncc(F)cn2)C1)N1CC(Oc2cccc3scnc23)C1` [Example 61, 3-(Benzo[d]thiazol-4-yloxy)-N-(1-(5-fluoropyrimidin-2-yl)azetidin-3-yl)azetidine-1-carboxamide], for which the IC50 was 10 to 79.4 nM. The same measure for `CC(=O)c1csc(NC(=O)N2CC(Oc3cccc4scnc34)C2)n1` [Example 62, N-(4-Acetylthiazol-2-yl)-3-(benzo[d]thiazol-4-yloxy)azetidine-1-carboxamide]: 10 to 79.4 nM; for `O=C(Nc1ccncc1)N1CC(Oc2cccc3scnc23)C1` [Example 63, 3-(Benzo[d]thiazol-4-yloxy)-N-(pyridin-4-yl)azetidine-1-carboxamide]: 100 to 1000 nM. The same measure for `O=C(NC1CCCCC1)N1CC(Oc2cccc3scnc23)C1` [Example 64, 3-(Benzo[d]thiazol-4-yloxy)-N-cyclohexylazetidine-1-carboxamide]: 100 to 1000 nM; for `CN/C(=N\C#N)N1CC(NC(=O)[C@H]2C[C@H](Oc3cccc4scnc34)C2)C1` [Example 65, (trans)-3-(Benzo[d]thiazol-4-yloxy)-N-(1-((E)-N′-cyano-N-methylcarbamimidoyl)azetidin-3-yl)cyclobutanecarboxamide]: 100 to 1000 nM. As for `CC(C)(C)OC(=O)N[C@H]1C[C@H](NC(=O)[C@H]2C[C@H](Oc3cccc4scnc34)C2)C1` [Example 66, tert-butyl ((trans)-3-((trans)-3-(benzo[d]thiazol-4-yloxy)cyclobutanecarboxamido)cyclobutyl)carbamate], the IC50 was 100 to 1000 nM. On to `O=C(NC1CCCCC1)N[C@H]1C[C@H](NC(=O)[C@H]2C[C@H](Oc3cccc4scnc34)C2)C1` [Example 67, (trans)-3-(Benzo[d]thiazol-4-yloxy)-N-((trans)-3-(3-cyclohexylureido)cyclobutyl)cyclobutanecarboxamide], for which the IC50 was 100 to 1000 nM.
